The text below walks through data of US11147272B2, “Pyridone compounds and agricultural and horticultural fungicides comprising the same as active ingredients” (MITSUI CHEMICALS AGRO, INC., priority 2017, dated 2021).

One experiment concerns Magnaporthe grisea. The experiment in a line: whole plant or invertebrate. The class given is in vivo. Conditions: 250 ppm drug solution sprayed on test plant.
For another experiment, the system named is Alternaia brassicicola. The experiment in a line: Test Example C: Alternaria sooty spot on cabbage. The class given is in vivo. As to conditions: 250 ppm drug solution sprayed on test plant. The text has this:
Seeds of a test plant (cabbage variety: Shikidori) were planted and cultivated until the cotyledons extended.
<Control Value> Control value=100{1−(n/3)}

The next experiment concerns Puccinia recondita. As to the kind of experiment: Test Example E: Brown rust on wheat. Conditions: 250 ppm drug solution sprayed on test plant. The class given is in vivo.
In a further experiment the test system is Phytophthora infestans. The experiment in a line: whole plant or invertebrate. The class given is in vivo. As to conditions: 250 ppm drug solution sprayed on test plant.
For a further experiment, the system named is Botrytis cinerea. The experiment in a line: Test Example B: Gray mold on tomato. As to conditions: 250 ppm drug solution sprayed on test plant.
For another experiment, the system named is Plasmopara viticola. As to the kind of experiment: Test Example G: Downy mildew on vine. Conditions: 250 ppm drug solution sprayed (2.5 ml/pot), grape Neomuscat, 7 to 10 days after inoculation.
The test system of experiment [1] is Colletotrichum orbiculare. The experiment in a line: Test Example H: Anthracnose on cucumber. As to conditions: 250 ppm drug solution sprayed (2.5 ml/pot), cucumber Sagami Hanjiro, 6 to 10 days after inoculation.
Experiment [2] has as its system Blumeria graminis f. sp. hordei. The experiment in a line: Test Example D: Powdery mildew on barley. Conditions: 250 ppm drug solution sprayed on test plant.

Turning to `C#CCOc1cc(F)c(-c2c(CCC)cc(Cl)c(=O)n2CC)c(F)c1` [compound 463], the “Test A control value” with Magnaporthe grisea is reported as “H (more than 50% control value)”. For the same compound, the “Test C control value” in the experiment with Alternaia brassicicola was “H (more than 50% control value)”. Moreover, the “Test E control value” with Puccinia recondita was “H (more than 50% control value)”. In addition, the “Test F control value” in the experiment on Phytophthora infestans was “L (50% or less control value)”. In addition, in the experiment with Botrytis cinerea, the “Test B control value” is “H (more than 50% control value)”. For the same compound, in the experiment with Plasmopara viticola, the “Test G control value” is given as “H (more than 50% control value)”. The “Test H control value” in experiment [1] was “H (more than 50% control value)”. Further, in experiment [2], the “Test D control value” is “H (more than 50% control value)”.
With `C#CCOc1cc(F)c(-c2c(CCC)cc(Br)c(=O)n2CC)c(F)c1` [compound 464], in the experiment with Magnaporthe grisea, the “Test A control value” is recorded as “L (50% or less control value)”. The “Test C control value” with Alternaia brassicicola is recorded as “H (more than 50% control value)”. In addition, the “Test E control value” in the experiment on Puccinia recondita is “H (more than 50% control value)”. Moreover, the “Test F control value” in the experiment on Phytophthora infestans is “L (50% or less control value)”. Moreover, the “Test B control value” in the experiment with Botrytis cinerea is given as “H (more than 50% control value)”. Further, the “Test G control value” in the experiment with Plasmopara viticola is “L (50% or less control value)”. Moreover, the “Test H control value” in experiment [1] is on record as “H (more than 50% control value)”. In addition, the “Test D control value” in experiment [2] is “H (more than 50% control value)”.
As for `CCn1c(-c2c(F)cc(F)cc2F)c(C(C)(OC)C(C)C)cc(Br)c1=O` (stereo not shown) [compound 465], the “Test A control value” with Magnaporthe grisea was “H (more than 50% control value)”. The “Test C control value” with Alternaia brassicicola is reported as “H (more than 50% control value)”. In addition, the “Test E control value” with Puccinia recondita is on record as “H (more than 50% control value)”. Further, in the experiment with Phytophthora infestans, the “Test F control value” is listed as “L (50% or less control value)”. Moreover, in the experiment on Botrytis cinerea, the “Test B control value” is listed as “H (more than 50% control value)”. Moreover, in the experiment on Plasmopara viticola, the “Test G control value” is “H (more than 50% control value)”. Also, the “Test H control value” in experiment [1] was “H (more than 50% control value)”. Also, the “Test D control value” in experiment [2] is on record as “H (more than 50% control value)”.
As to `CCOC(C)(c1cc(Br)c(=O)n(CC)c1-c1c(F)cc(F)cc1F)C(C)C` (stereo not shown) [compound 466], the “Test A control value” with Magnaporthe grisea is recorded as “L (50% or less control value)”. Also, in the experiment with Alternaia brassicicola, the “Test C control value” is “H (more than 50% control value)”. Moreover, the “Test E control value” in the experiment on Puccinia recondita is reported as “L (50% or less control value)”. In addition, the “Test F control value” in the experiment on Phytophthora infestans is given as “L (50% or less control value)”. In addition, the “Test B control value” with Botrytis cinerea is “L (50% or less control value)”. The “Test G control value” in the experiment with Plasmopara viticola was “L (50% or less control value)”. Besides, the “Test H control value” in experiment [1] is “L (50% or less control value)”. The “Test D control value” in experiment [2] is listed as “H (more than 50% control value)”.
Turning to `CCn1c(-c2c(F)cc(OC)cc2F)c(C(C)(OC)C(C)C)cc(Br)c1=O` (stereo not shown) [compound 467], the “Test A control value” in the experiment with Magnaporthe grisea is recorded as “H (more than 50% control value)”. In the experiment on Alternaia brassicicola, the “Test C control value” is listed as “H (more than 50% control value)”. In the experiment with Puccinia recondita, the “Test E control value” was “H (more than 50% control value)”. In addition, the “Test F control value” with Phytophthora infestans was “L (50% or less control value)”. In addition, in the experiment on Botrytis cinerea, the “Test B control value” is recorded as “H (more than 50% control value)”. In addition, in the experiment with Plasmopara viticola, the “Test G control value” is recorded as “H (more than 50% control value)”. In experiment [1], the “Test H control value” is given as “H (more than 50% control value)”. Also, the “Test D control value” in experiment [2] is “H (more than 50% control value)”.
`CCOC(C)(c1cc(Br)c(=O)n(CC)c1-c1c(F)cc(OC)cc1F)C(C)C` (stereo not shown) [compound 468]: in the experiment with Magnaporthe grisea, the “Test A control value” is on record as “H (more than 50% control value)”. In addition, the “Test C control value” with Alternaia brassicicola is listed as “H (more than 50% control value)”. The “Test E control value” in the experiment on Puccinia recondita is given as “H (more than 50% control value)”. Besides, in the experiment on Phytophthora infestans, the “Test F control value” is reported as “H (more than 50% control value)”. Besides, the “Test B control value” with Botrytis cinerea was “H (more than 50% control value)”. Besides, in the experiment on Plasmopara viticola, the “Test G control value” was “H (more than 50% control value)”. Also, in experiment [1], the “Test H control value” is listed as “H (more than 50% control value)”. The “Test D control value” in experiment [2] is “H (more than 50% control value)”.
As to `CCCc1ccc(=O)n(CC(F)F)c1-c1c(F)cc(F)cc1F` [compound 470], the “Test A control value” with Magnaporthe grisea is listed as “L (50% or less control value)”. Besides, the “Test C control value” in the experiment with Alternaia brassicicola is “H (more than 50% control value)”. Also, the “Test E control value” in the experiment with Puccinia recondita is reported as “L (50% or less control value)”. Also, the “Test F control value” in the experiment on Phytophthora infestans is “L (50% or less control value)”. The “Test B control value” in the experiment on Botrytis cinerea is recorded as “L (50% or less control value)”. The “Test G control value” in the experiment with Plasmopara viticola is recorded as “L (50% or less control value)”. The “Test H control value” in experiment [1] is “H (more than 50% control value)”. Also, the “Test D control value” in experiment [2] was “L (50% or less control value)”.
Consider `CCCc1cc(Cl)c(=O)n(CC(F)F)c1-c1c(F)cc(F)cc1F` [compound 471], for which, in the experiment with Magnaporthe grisea, the “Test A control value” was “H (more than 50% control value)”. The “Test C control value” in the experiment on Alternaia brassicicola was “H (more than 50% control value)”. Further, in the experiment on Puccinia recondita, the “Test E control value” is “H (more than 50% control value)”. In the experiment with Phytophthora infestans, the “Test F control value” is “L (50% or less control value)”. The “Test B control value” in the experiment on Botrytis cinerea is given as “H (more than 50% control value)”. Also, the “Test G control value” in the experiment with Plasmopara viticola was “H (more than 50% control value)”. Further, the “Test H control value” in experiment [1] was “H (more than 50% control value)”. For the same compound, the “Test D control value” in experiment [2] is reported as “H (more than 50% control value)”.
Turning to `CCCc1cc(Br)c(=O)n(CC(F)F)c1-c1c(F)cc(F)cc1F` [compound 472], the “Test A control value” in the experiment on Magnaporthe grisea is reported as “H (more than 50% control value)”. Further, in the experiment on Alternaia brassicicola, the “Test C control value” is listed as “H (more than 50% control value)”. For the same compound, in the experiment with Puccinia recondita, the “Test E control value” was “H (more than 50% control value)”. In addition, the “Test F control value” with Phytophthora infestans was “L (50% or less control value)”. Also, the “Test B control value” in the experiment with Botrytis cinerea is listed as “H (more than 50% control value)”. Moreover, in the experiment with Plasmopara viticola, the “Test G control value” is on record as “H (more than 50% control value)”. Moreover, in experiment [1], the “Test H control value” is “H (more than 50% control value)”. In addition, the “Test D control value” in experiment [2] is on record as “H (more than 50% control value)”.
Turning to `CCCc1cc(I)c(=O)n(CC(F)F)c1-c1c(F)cc(F)cc1F` [compound 473], the “Test A control value” in the experiment with Magnaporthe grisea is “H (more than 50% control value)”. Further, the “Test C control value” with Alternaia brassicicola is listed as “H (more than 50% control value)”. Also, the “Test E control value” in the experiment with Puccinia recondita is recorded as “H (more than 50% control value)”. The “Test F control value” in the experiment with Phytophthora infestans was “L (50% or less control value)”. In addition, in the experiment with Botrytis cinerea, the “Test B control value” is listed as “H (more than 50% control value)”. In addition, the “Test G control value” in the experiment with Plasmopara viticola is “L (50% or less control value)”. For the same compound, the “Test H control value” in experiment [1] is listed as “L (50% or less control value)”. Also, the “Test D control value” in experiment [2] is “H (more than 50% control value)”.
For `CCCc1ccc(=O)n(CC(F)F)c1-c1c(F)cc(OC)cc1F` [compound 474], the “Test A control value” in the experiment with Magnaporthe grisea was “H (more than 50% control value)”. In the experiment on Alternaia brassicicola, the “Test C control value” is reported as “H (more than 50% control value)”. Further, the “Test E control value” with Puccinia recondita is listed as “H (more than 50% control value)”. For the same compound, the “Test F control value” in the experiment with Phytophthora infestans was “L (50% or less control value)”. Also, the “Test B control value” in the experiment on Botrytis cinerea is “H (more than 50% control value)”. Moreover, the “Test G control value” in the experiment on Plasmopara viticola is “H (more than 50% control value)”. Moreover, in experiment [1], the “Test H control value” is “H (more than 50% control value)”. In addition, the “Test D control value” in experiment [2] is recorded as “H (more than 50% control value)”.
With `CCCc1cc(Cl)c(=O)n(CC(F)F)c1-c1c(F)cc(OC)cc1F` [compound 475], in the experiment with Magnaporthe grisea, the “Test A control value” is “H (more than 50% control value)”. Also, the “Test C control value” in the experiment on Alternaia brassicicola is reported as “H (more than 50% control value)”. Moreover, the “Test E control value” in the experiment with Puccinia recondita is “H (more than 50% control value)”. The “Test F control value” in the experiment with Phytophthora infestans was “L (50% or less control value)”. In the experiment on Botrytis cinerea, the “Test B control value” is recorded as “H (more than 50% control value)”. Further, the “Test G control value” in the experiment with Plasmopara viticola is “H (more than 50% control value)”. The “Test H control value” in experiment [1] is on record as “H (more than 50% control value)”. The “Test D control value” in experiment [2] is “H (more than 50% control value)”.
For `CCCc1cc(Br)c(=O)n(CC(F)F)c1-c1c(F)cc(OC)cc1F` [compound 476], the “Test A control value” in the experiment with Magnaporthe grisea is “H (more than 50% control value)”. Besides, the “Test C control value” in the experiment with Alternaia brassicicola is given as “H (more than 50% control value)”. Besides, the “Test E control value” with Puccinia recondita is “H (more than 50% control value)”. Besides, the “Test F control value” with Phytophthora infestans was “L (50% or less control value)”. Moreover, the “Test B control value” with Botrytis cinerea is “H (more than 50% control value)”. Also, the “Test G control value” in the experiment on Plasmopara viticola is recorded as “H (more than 50% control value)”. The “Test H control value” in experiment [1] is on record as “H (more than 50% control value)”. The “Test D control value” in experiment [2] was “H (more than 50% control value)”.
`CCCc1cc(I)c(=O)n(CC(F)F)c1-c1c(F)cc(OC)cc1F` [compound 477]: in the experiment on Magnaporthe grisea, the “Test A control value” is “H (more than 50% control value)”. For the same compound, the “Test C control value” in the experiment with Alternaia brassicicola is given as “H (more than 50% control value)”. Moreover, the “Test E control value” with Puccinia recondita is given as “H (more than 50% control value)”. Also, in the experiment with Phytophthora infestans, the “Test F control value” is listed as “L (50% or less control value)”. Also, the “Test B control value” in the experiment on Botrytis cinerea is listed as “H (more than 50% control value)”. In the experiment on Plasmopara viticola, the “Test G control value” is “L (50% or less control value)”. In addition, in experiment [1], the “Test H control value” was “H (more than 50% control value)”. Moreover, the “Test D control value” in experiment [2] is recorded as “H (more than 50% control value)”.
